According to PMC8467576, “Novel Ubiquitin Specific Protease-13 Inhibitors Alleviate Neurodegenerative Pathology” (Metabolites, 2021):

Columns and labels:
[1] = system: SH-SY5Y human neuroblastoma cells; assay: LDH and MTT cell viability assays; format: cell-based; conditions: 5 h; for concentration near and above which cell viability decreased: compared to DMSO or untreated controls; for cell toxicity: range of concentrations studied (0.001 µM to 1 mM)
Method: BK50118-B and BK50118-C (Figure 2C,D) decreased cell viability near and above 100 μM compared to DMSO or untreated controls. CL3-499 (Figure 2G) decreased cell viability near and above 1 mM compared to DMSO or untreated controls.
(§1) SH-SY5Y cells were transiently transfected for 24 h with human wild-type α-synuclein using Fugene HD transfection reagent (Promega, E2311, Madison, WI, USA) according to manufacturer’s protocol. Cells were treated with 1 mM, 0.1 mM, 0.01 mM, 1 µM, 0.1 µM, 0.01 µM and 0.001 µM of each novel compounds (BK50118-A, BK50118-B, BK50118-C, CL3-499, CL3-512 and CL3-514) dissolved in DMSO for 5 h. Cells were then harvested on ice by removing culture medium and adding 0.2 mL 1x sodium-tris, EDTA, NP-40 (STEN) buffer (50 mM Tris (pH 7.6), 150 mM NaCl, 2 mM EDTA, 0.2 % NP-40, 0.2 % with Halt protease and phosphatase inhibitor solution (ThermoFisher, 78446). Cells were detached with a cell scraper and collected into centrifuge tubes and incubated at 4 °C for 30 min with agitation. Samples were stored at −80 °C and used for ELISA analyses. For cell viability assay, SHSY-5Y cells stably expressing human wild-type alpha-synuclein were treated with 1 mM, 0.1 mM, 0.01 mM, 1 µM, 0.1 µM, 0.01 µM and 0.001 µM of each novel compound (BK50118-A, BK50118-B, BK50118-C, CL3-499, CL3-512 and CL3-514) dissolved in DMSO for 5 h. Cell viability was determined via lactate dehydrogenase assay on culture media (Thermofisher, 88954) and MTT assay on plated cells (Thermofisher, V13154).

USP13 [2] = target: T1, USP13 (Homo sapiens, UniProt Q92995); assay: USP13 activity via functional ELISA in alpha-synuclein transfected SH-SY5Y cells; format: cell-based; conditions: SH-SY5Y cells transfected with human alpha-synuclein, 5 h, read-out: Estimated IC50 to USP13
T1 construct: ELISA for USP13 (MyBioSource, Cat # MBS9335287, San Diego, CA, USA); endogenous in cells; host or cells: human SH-SY5Y neuroblastoma cells transfected with human wild-type alpha-synuclein
T1 sequence (Q92995 1-863): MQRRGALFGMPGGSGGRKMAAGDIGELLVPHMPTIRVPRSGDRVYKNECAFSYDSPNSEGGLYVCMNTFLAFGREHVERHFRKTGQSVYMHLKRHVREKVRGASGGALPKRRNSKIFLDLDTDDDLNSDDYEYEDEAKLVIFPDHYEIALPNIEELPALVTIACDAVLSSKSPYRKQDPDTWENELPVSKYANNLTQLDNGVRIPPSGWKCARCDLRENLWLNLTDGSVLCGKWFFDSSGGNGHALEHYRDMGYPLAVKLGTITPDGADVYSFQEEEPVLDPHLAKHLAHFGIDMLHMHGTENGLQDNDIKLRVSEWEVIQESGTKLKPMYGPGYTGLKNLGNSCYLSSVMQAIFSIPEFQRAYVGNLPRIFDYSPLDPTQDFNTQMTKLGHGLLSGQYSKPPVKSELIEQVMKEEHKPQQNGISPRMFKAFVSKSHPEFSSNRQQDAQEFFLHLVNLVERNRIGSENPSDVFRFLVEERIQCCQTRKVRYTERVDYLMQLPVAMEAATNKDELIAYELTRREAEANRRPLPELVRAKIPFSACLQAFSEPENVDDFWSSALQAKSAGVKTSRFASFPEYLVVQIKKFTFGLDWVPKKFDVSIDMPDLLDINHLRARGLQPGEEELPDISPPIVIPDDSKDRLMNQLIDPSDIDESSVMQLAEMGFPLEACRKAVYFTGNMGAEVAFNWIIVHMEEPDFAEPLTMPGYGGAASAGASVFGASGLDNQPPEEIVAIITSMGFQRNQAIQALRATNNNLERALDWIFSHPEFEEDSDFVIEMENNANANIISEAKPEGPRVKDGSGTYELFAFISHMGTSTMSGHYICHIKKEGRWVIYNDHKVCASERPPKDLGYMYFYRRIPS
Method: Stably transfected human neuroblastoma SH-SY5Y cells with human wild-type alpha-synuclein were treated with 1 mM, 100 µM, 10 µM, 1 µM, 0.1 µM, 0.01 µM and 0.001 µM of each of BK50118-A, BK50118-B, BK50118-C, CL3-499, CL3-512 and CL3-514 dissolved in an equivalent volume of DMSO for 5 h. […] The other 5 compounds were also able to lower alpha-synuclein levels but with less potency (Figure 3H,I,K–M).
as §1
The ELISA for USP13 (MyBioSource, Cat # MBS9335287, San Diego, CA, USA), Human alpha-synuclein (Biolegend, Cat # 844101, San Diego, CA, USA) and specific p-Tau ser396 (Invitrogen, KHB7031, Waltham, MA, USA) were performed on cell or brain tissue extracts as described above according to manufacturers’ protocol.
All statistical analyses were performed using GraphPad Prism version 5.0 (GraphPad software, Inc, San Diego, CA, USA). Two-tailed student’s t-test was used in comparison of means of two groups. Ordinary one-way analysis of variance (ANOVA) followed by Newman–Keuls or Dunnett comparison post hoc tests were used in comparison of means of multiple groups. Asterisks denote actual p-value significances (* < 0.05, ** < 0.01, *** < 0.001 and **** < 0.0001), and N is the number of animals or the number of independent experiments (cell culture) per group. Unless otherwise indicated, data are expressed as Mean ± SD. IC50 to USP13 levels was also estimated using GraphPad Prism version 5.0 (GraphPad software, Inc, San Diego, CA, USA).

[3] = parameters: method as in PMID 21962518; conditions: cited from earlier work
USP13 [4] = system: USP13; parameters: method as in PMID 21962518; conditions: cited from earlier work
USP10 = system: USP10; parameters: method as in PMID 21962518; conditions: cited from earlier work

Compound	concentration near and above which cell viability decreased [1]	IC50 (USP13 [2])	cell toxicity [1]	blood-brain barrier (BBB) penetration [3]	IC50 (USP13 [4])	IC50 (USP10)
Fc1ccc2nccc(Nc3ccccc3)c2c1 [BK50118-B, 6-fluoro-N-phenylquinolin-4-amine]	≥ 100 µM	2130 pM				
c1ccc(Nc2ccnc3ccsc23)cc1 [BK50118-A, N-phenylthieno[3,2-b]pyridin-7-amine]	≥ 0.1 µM	110 pM				
COC(=O)[C@H](Cc1ccccc1)Nc1c([N+](=O)[O-])c(=O)oc2ccccc12 [CL3-512, (S)-methyl (3-nitro-2-oxo-2H-chromen-4-yl)-phenylalaninate]		270 pM	did not show cell toxicity			
Fc1ccc2nccc(NCc3ccccc3)c2c1 [CL3-499, N-benzyl-6-fluoroquinolin-4-amine]	≥ 1000 µM	290 pM				
Fc1ccc(CNc2ncnc3ccc(F)cc23)cc1 [Spautin-1]				does not cross the blood–brain barrier (BBB)	600000 to 700000 pM	600000 to 700000 pM
COC(=O)[C@H](Cc1ccc(O)cc1)Nc1c([N+](=O)[O-])c(=O)oc2ccccc12 [CL3-514, (S)-methyl (3-nitro-2-oxo-2H-chromen-4-yl)-tyrosinate]		610 pM	did not show cell toxicity			
